# In US8513295B2, “Viral and fungal inhibitors” (Georgetown University, priority 2008, dated 2013):
# pIC50: −log10 of the molar value.
# Molecular target: DENV protease (Dengue virus type 2, UniProt P14340)
# Assay: DENV protease inhibition activity
# Format: biochemical
# Conditions: not given
# Experimental: (§1) Compounds I-1 to I-14 and II-1 to II-4 (which were synthesized using methods of organic synthesis as discussed above) were analyzed by in vitro protease assays performed in opaque 96-well plates. The enzyme kinetics was done under steady-state conditions. The standard reaction mixtures (50 μL) containing 200 mM Tris-HCl, pH 9.5, 6 mM NaCl, 30% glycerol, 67 nM of WNV protease and 50 μM inhibitor in each assay were incubated for 15 min at room temperature. Reactions were started by the addition of the substrate Boc-Gly-Lys-Arg-AMC at 100 μM final concentration and incubated at room temperature for 15 min. The absorbance of each well containing para-nitroaniline was measured at 405 nm using a spectrophotometer (Molecular Devices, Sunnyvale, Calif.); the fluorescence of AMC released from the WNV substrate was measured using a Tecan Geneios (Durham, N.C.) spectrofluorometer at excitation and emission wavelengths of 390 nm and 420 nm, respectively. Similarly, the WNV protease activity was also determined using the fluorogenic tetrapeptide substrate containing the P4-P1 residues and the fluorogenic group, 4-methoxy-β-naphthylamide (MNA), at P1′ position (Z-Val-Lys-Lys-Arg-MNA) (SEQ ID NO:1). Fluorescence was measured using a spectrofluorometer (Molecular Devices) at excitation and emission wavelengths of 290 and 420 nm, respectively. Fluorescence values obtained with no inhibitor control were taken as 100% and those in the presence of inhibitors were plotted as the percent inhibition of the control.
# (§2) Compounds I-2, I-4, I-6, I-7, I-8, I-9, I-23, I-26, I-27, I-28, I-29, I-30, I-31, I-32, III-1, III-2, VI-1, VI-2, VI-3, and VI-4 were also tested for WNV protease inhibition activity according to the procedure detailed above. Further, Compounds I-28, V-1, VI-2, VI-3, VI-4, and IX-1 were tested for DENV protease inhibition activity. The structures of Compounds I-2, I-4, I-6, I-7, I-8, I-9, I-23, I-26, I-27, I-28, I-29, I-30, I-31, I-32, III-1, III-2, VI-1, VI-2, VI-3, VI-4, and IX-1 are provided above.
# DENV protease, sequence (P14340 1394-1440): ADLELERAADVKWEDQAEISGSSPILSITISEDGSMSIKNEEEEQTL
# DENV protease, sequence (P14340 1476-1653): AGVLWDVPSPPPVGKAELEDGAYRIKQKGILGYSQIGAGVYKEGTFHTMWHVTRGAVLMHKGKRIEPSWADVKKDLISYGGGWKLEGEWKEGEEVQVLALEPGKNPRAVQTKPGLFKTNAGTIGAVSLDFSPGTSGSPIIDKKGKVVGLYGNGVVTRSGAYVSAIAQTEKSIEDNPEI
row,SMILES,pIC50
1,O=C1c2ccccc2CN1C(Cc1ccccc1)c1nnc(-c2cccc(Cl)c2)o1 (centres unmarked) [Compound V-1],4.91
2,O=c1c2ccccc2sn1C(Cc1ccccc1)c1nnc(-c2cccc(Cl)c2)o1 (centres unmarked) [VI-3],4.97
3,O=C(CSc1nc2ccccc2c(=O)[nH]1)Nc1cccc(Oc2ccccc2)c1 [IX-1],4.05
4,O=C(CCC(C(=O)Nc1ccc(Oc2ccccc2)cc1)N1Cc2ccccc2C1=O)OCc1ccccc1 (centres unmarked) [Compound I-28],4.35
5,O=c1c2ccccc2sn1C(Cc1ccccc1)c1nnc(-c2cccc(F)c2)o1 (centres unmarked) [VI-4],4.94
6,O=c1c2ccccc2sn1C(Cc1ccccc1)c1nnc(Cc2ccccc2)o1 (centres unmarked) [VI-2],5.02

# Molecular target: T1, WNV protease (UniProt Q9Q6P4)
# T1 construct: "expression and purification of WNV (EG101 strain) were similar to those described elsewhere by Mueller et al."
# T1 sequence (Q9Q6P4 1506-2124): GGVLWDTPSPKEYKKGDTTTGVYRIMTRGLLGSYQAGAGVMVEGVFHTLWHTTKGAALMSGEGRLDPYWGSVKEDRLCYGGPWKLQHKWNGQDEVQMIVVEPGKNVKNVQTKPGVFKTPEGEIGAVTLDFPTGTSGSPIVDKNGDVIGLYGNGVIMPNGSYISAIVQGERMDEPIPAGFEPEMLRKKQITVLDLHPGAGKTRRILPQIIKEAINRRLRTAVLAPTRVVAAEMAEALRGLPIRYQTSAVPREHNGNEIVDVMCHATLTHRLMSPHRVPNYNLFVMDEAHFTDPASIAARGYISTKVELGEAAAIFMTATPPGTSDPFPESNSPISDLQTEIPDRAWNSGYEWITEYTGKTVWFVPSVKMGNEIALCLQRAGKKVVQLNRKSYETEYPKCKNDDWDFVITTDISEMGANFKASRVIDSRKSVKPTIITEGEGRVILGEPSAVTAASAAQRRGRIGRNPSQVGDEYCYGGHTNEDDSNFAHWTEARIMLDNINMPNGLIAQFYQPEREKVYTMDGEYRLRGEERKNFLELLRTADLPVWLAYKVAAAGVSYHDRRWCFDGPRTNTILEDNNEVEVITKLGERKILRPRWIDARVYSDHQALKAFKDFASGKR
# Assay: in vitro WNV protease assay (Example 2)
# Format: biochemical, West Nile Virus (EG101 strain)
# Conditions: Protease Inhibition Activity, Table 1; read-out: IC50 (μM) WNVpro
# Experimental: Procedures for expression and purification of WNV (EG101 strain) were similar to those described elsewhere by Mueller et al., Int. J. Biochem. Cell. Biol., 39: 606-14 (2007). Briefly, E. coli Top10 F′ cells (Invitrogen, Carlsbad, Calif.) were transformed with the protease expression plasmid. Cells were grown at 37° C. until the OD600 was ˜0.5. Cells were then induced with isopropyl-1-thio-β-D-galactopyranoside (American Bioanalytical, Natick, Mass.) (0.5 mM), and incubated for 4 h at 37° C. Cells were harvested by centrifugation (5000×g) for 15 min at 4° C., washed once with a buffer containing 50 mM Tris-HCl, pH 7.5, and 200 mM NaCl, centrifuged at 5000×g for 15 min at 4° C., and stored at −80° C. until used.
# Proteases were purified by suspending bacterial pellets in 50 mM Hepes, pH 7.0, 500 mM NaCl, (buffer A) with 0.05 mg/ml lysozyme. Cells were incubated for 30 min on ice after addition of 10% stock solution of Triton X-100 (final concentration of 0.5%). Cells were disrupted by sonication for 2 min and the soluble fraction was collected after centrifugation (15,000×g) for 30 min at 4° C. The soluble fraction was incubated for 1 h at 4° C. with Talon resin (BD Bioscience, San Jose, Calif.) which was pre-equilibrated in buffer A. The affinity resin was centrifuged at (400×g) for 10 min at 4° C., washed three times with buffer A, and packed into a column. Washing of the column was continued with the buffer A containing 10 mM imidazole, followed by elution of the protease with buffer A containing 150 mM imidazole. The protease was concentrated and further purified by Sephadex G-75 gel filtration chromatography. The purified protease fractions were pooled and dialyzed against a buffer containing 50 mM Tris-HCl pH 7.5 and 300 mM NaCl (4×1L). Aliquots (100 μl) were frozen at −80° C.
# as §1, §2
row,SMILES,IC50 [µM]
1,O=C(CNC(=O)Nc1ccc(Oc2ccccc2)cc1)NCc1ccccc1 [Compound I-7],26.1
2,O=c1c2ccccc2sn1C(Cc1ccccc1)c1nnc(-c2cccc(Cl)c2)o1 (centres unmarked) [VI-3],7.6
3,O=C(CSc1nc2ccccc2s1)Nc1nc2ccccc2s1 [III-2],34.1
4,O=C(CSc1nc(-c2ccccc2)no1)Nc1nc2ccccc2[nH]1 [III-1],14.7
5,O=C(Nc1ccccc1Oc1ccccc1)C(Cc1ccccc1)n1sc2ccccc2c1=O (centres unmarked) [Compound I-30],6
6,O=C(Nc1cccc(Oc2ccccc2)c1)C(Cc1ccccc1)N1Cc2ccccc2C1=O (centres unmarked) [Compound I-2],11.1
7,O=C(Nc1cccc(Oc2ccccc2)c1)C(Cc1ccccc1)n1sc2ccccc2c1=O (centres unmarked) [Compound I-31],2.6
8,O=C(CNC(=O)Nc1ccc(Oc2ccccc2)cc1)Nc1ccccc1 [Compound I-9],31.2
9,O=C(CC(C(=O)Nc1cccc(Oc2ccccc2)c1)N1Cc2ccccc2C1=O)OCc1ccccc1 (centres unmarked) [Compound I-26],13
10,O=C(CCC(C(=O)Nc1cccc(Oc2ccccc2)c1)N1Cc2ccccc2C1=O)OCc1ccccc1 (centres unmarked) [Compound I-27],22.7
11,O=C(Nc1ccc(Oc2ccccc2)cc1)C(C(=O)OCc1ccccc1)n1sc2ccccc2c1=O (centres unmarked) [Compound I-29],9
12,O=C(CNC(=O)Nc1cccc(Oc2ccccc2)c1)Nc1ccccc1 [Compound I-8],22.9
13,O=C(CCCCc1ccccc1)Nc1cccc(Oc2ccccc2)c1 [Compound I-23],38.6
14,COc1ccc(Cc2nnc(C(Cc3ccccc3)n3sc4ccccc4c3=O)o2)cc1 (centres unmarked) [VI-1],26
15,O=C(Nc1ccc(Oc2ccccc2)cc1)C(Cc1ccccc1)n1sc2ccccc2c1=O (centres unmarked) [Compound I-32],6.6
16,O=C(Nc1ccc(Oc2ccccc2)cc1)C(Cc1ccccc1)N1Cc2ccccc2C1=O (centres unmarked) [Compound I-4],19.7
17,O=C(CNC(=O)Nc1cccc(Oc2ccccc2)c1)NCc1ccccc1 [Compound I-6],22.1
18,O=C(CCC(C(=O)Nc1ccc(Oc2ccccc2)cc1)N1Cc2ccccc2C1=O)OCc1ccccc1 (centres unmarked) [Compound I-28],15.5
19,O=c1c2ccccc2sn1C(Cc1ccccc1)c1nnc(-c2cccc(F)c2)o1 (centres unmarked) [VI-4],9.8
20,O=c1c2ccccc2sn1C(Cc1ccccc1)c1nnc(Cc2ccccc2)o1 (centres unmarked) [VI-2],2.1
